Measured values taken from ChEMBL document CHEMBL1201862, “PubChem BioAssay data set” (2004).
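Grown in 96-well plates, cells were treated for 48 hours with each compound at five concentrations. Insufficient inhibition: endpoint recorded as highest concentration tested. GI50 = concentration required for 50% inhibition of growth.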 Active and inactive are the calls of the source. No stated cut-off is given here; in the data, active = GI50 up to about 1.1 µM and inactive = higher.

Key:
Test in all cases: growth of human tumour cells (NCI), 48 h
[1] = system: UACC-257
[2] = system: M14
[3] = system: Malme-3M
[4] = system: IGROV-1
[5] = system: NCI-H522
[6] = system: MOLT-4
[7] = system: M19-MEL
[8] = system: A498
[9] = system: HCT-15
[10] = system: OVCAR-3
[11] = system: SF-268
[12] = system: 786-0
[13] = system: NCI-H460
[14] = system: ACHN
[15] = system: SW-620
[16] = system: SN12C
[17] = system: Hs-578T
[18] = system: MDA-MB-231
[19] = system: MDA-MB-435
[20] = system: BT-549

SMILES	GI50 [1]	GI50 [2]	GI50 [3]	GI50 [4]	GI50 [5]	GI50 [6]	GI50 [7]	GI50 [8]	GI50 [9]	GI50 [10]	GI50 [11]	GI50 [12]	GI50 [13]	GI50 [14]	GI50 [15]	GI50 [16]	GI50 [17]	GI50 [18]	GI50 [19]	GI50 [20]
O=c1[nH]c(=O)n([C@@H]2C[C@H](CO)[C@H](O)C2)cc1/C=C/Br	> 100 µM (inactive)	> 100 µM (inactive)	> 100 µM (inactive)	> 100 µM (inactive)	> 100 µM (inactive)	> 100 µM (inactive)	> 100 µM (inactive)	> 100 µM (inactive)	> 100 µM	> 100 µM (inactive)	> 100 µM (inactive)	> 100 µM (inactive)	> 100 µM (inactive)	> 100 µM (inactive)	> 100 µM (inactive)	–	–	–	–	–
Cc1ccccc1NC(=O)/C=N/O	> 100 µM (inactive)	> 100 µM (inactive)	> 100 µM (inactive)	> 100 µM (inactive)	> 100 µM (inactive)	> 100 µM (inactive)	> 100 µM (inactive)	> 100 µM (inactive)	> 100 µM	> 100 µM (inactive)	> 100 µM (inactive)	> 100 µM (inactive)	–	> 100 µM (inactive)	> 100 µM (inactive)	> 100 µM (inactive)	–	–	–	–
COc1cc2c(cc1OC)[C@@H]([C@H](O)c1ccccc1)NCC2	> 100 µM (inactive)	> 100 µM (inactive)	> 100 µM (inactive)	> 100 µM (inactive)	> 100 µM (inactive)	> 100 µM (inactive)	> 100 µM (inactive)	> 100 µM (inactive)	> 100 µM	> 100 µM (inactive)	> 100 µM (inactive)	> 100 µM (inactive)	> 100 µM (inactive)	> 100 µM (inactive)	> 100 µM (inactive)	> 100 µM (inactive)	–	–	–	–
CCC1(CC)C(=O)NC(=S)N=C1N	> 100 µM (inactive)	> 100 µM (inactive)	> 100 µM (inactive)	> 100 µM (inactive)	> 100 µM (inactive)	> 100 µM (inactive)	> 100 µM (inactive)	> 100 µM (inactive)	> 100 µM	> 100 µM (inactive)	> 100 µM (inactive)	> 100 µM (inactive)	> 100 µM (inactive)	> 100 µM (inactive)	> 100 µM (inactive)	> 100 µM (inactive)	–	–	–	–
CC12CCC(=O)C[C@H]1CCC(OC=O)C2Br (some centres undefined)	> 100 µM (inactive)	> 100 µM (inactive)	> 100 µM (inactive)	> 100 µM (inactive)	> 100 µM (inactive)	> 100 µM (inactive)	> 100 µM (inactive)	> 100 µM (inactive)	> 100 µM	> 100 µM (inactive)	> 100 µM (inactive)	> 100 µM (inactive)	> 100 µM (inactive)	> 100 µM (inactive)	> 100 µM (inactive)	> 100 µM (inactive)	–	–	–	–
O=C1Nc2ccccc2N=CC1NC(=O)C(c1ccccc1)c1ccccc1 (centres undefined)	> 100 µM (inactive)	> 100 µM (inactive)	> 100 µM (inactive)	> 100 µM (inactive)	> 100 µM (inactive)	79.3 µM (inactive)	> 100 µM (inactive)	> 100 µM (inactive)	> 100 µM	> 100 µM (inactive)	> 100 µM (inactive)	> 100 µM (inactive)	> 100 µM (inactive)	> 100 µM (inactive)	> 100 µM (inactive)	> 100 µM (inactive)	–	–	–	–
COC(=O)C(=O)C(C(=O)C(=O)Nc1ccc(C)cc1C)c1nc2ccccc2nc1O (centres undefined)	58.7 µM (inactive)	54.8 µM (inactive)	57.4 µM (inactive)	32.5 µM (inactive)	25 µM (inactive)	32.4 µM (inactive)	> 100 µM (inactive)	19.5 µM (inactive)	31.6 µM	32.7 µM (inactive)	99.1 µM (inactive)	77.4 µM (inactive)	85.5 µM (inactive)	50 µM (inactive)	> 100 µM (inactive)	41.6 µM (inactive)	–	–	–	–
ClCc1ccc(C2OCCO2)cc1	14.5 µM (inactive)	13.6 µM (inactive)	20.3 µM (inactive)	> 72.4 µM (inactive)	14.8 µM (inactive)	13.8 µM (inactive)	14 µM (inactive)	20.8 µM (inactive)	16.7 µM	22.3 µM (inactive)	> 100 µM (inactive)	23.3 µM (inactive)	19.2 µM (inactive)	> 42.4 µM (inactive)	16.8 µM (inactive)	16.6 µM (inactive)	–	–	–	–
COc1ccc(/C(Cl)=C(\C=O)c2ccc(OC)c(OC)c2)cc1OC	41.7 µM (inactive)	> 100 µM (inactive)	56.5 µM (inactive)	95.3 µM (inactive)	43.5 µM (inactive)	> 100 µM (inactive)	99.3 µM (inactive)	> 94.4 µM (inactive)	83 µM	> 46.8 µM (inactive)	37.2 µM (inactive)	> 100 µM (inactive)	91.4 µM (inactive)	> 100 µM (inactive)	> 100 µM (inactive)	> 100 µM (inactive)	> 100 µM (inactive)	> 100 µM (inactive)	> 100 µM (inactive)	> 100 µM (inactive)
COc1ccc(C(=O)Nc2ccc(S(=O)(=O)NCC(=O)O)cc2)cc1	> 100 µM (inactive)	> 100 µM (inactive)	> 100 µM (inactive)	> 100 µM (inactive)	> 100 µM (inactive)	> 100 µM (inactive)	> 100 µM (inactive)	> 100 µM (inactive)	> 100 µM	> 100 µM (inactive)	> 100 µM (inactive)	> 100 µM (inactive)	> 100 µM (inactive)	> 100 µM (inactive)	> 100 µM (inactive)	> 100 µM (inactive)	–	–	–	–
O=C(/N=C(\Nc1ccccc1)SCCS/C(=N/C(=O)c1cccs1)Nc1ccccc1)c1cccs1	33 µM (inactive)	55.8 µM (inactive)	91.6 µM (inactive)	> 100 µM (inactive)	20.9 µM (inactive)	24 µM (inactive)	53.8 µM (inactive)	56.9 µM (inactive)	44.6 µM	54 µM (inactive)	> 10 µM (inactive)	61.4 µM (inactive)	31.6 µM (inactive)	43.6 µM (inactive)	95.7 µM (inactive)	59.8 µM (inactive)	–	–	–	–
CCNC(=O)COc1ccc(Cl)cc1Cl	> 100 µM (inactive)	> 100 µM (inactive)	> 100 µM (inactive)	> 100 µM (inactive)	> 100 µM (inactive)	> 100 µM (inactive)	> 100 µM (inactive)	> 100 µM (inactive)	> 100 µM	> 100 µM (inactive)	> 100 µM (inactive)	> 100 µM (inactive)	> 100 µM (inactive)	> 100 µM (inactive)	> 100 µM (inactive)	> 100 µM (inactive)	–	–	–	–
OCC(O)C(OC1OC(CO)C(O)C(O)C1O)c1nn(-c2ccc(F)cc2)c2nc3cc(Cl)c(Cl)cc3cc12 (centres undefined)	> 100 µM (inactive)	> 100 µM (inactive)	> 100 µM (inactive)	–	> 100 µM (inactive)	> 100 µM (inactive)	> 100 µM (inactive)	> 100 µM (inactive)	> 100 µM	> 100 µM (inactive)	> 100 µM (inactive)	> 100 µM (inactive)	> 100 µM (inactive)	> 100 µM (inactive)	–	> 100 µM (inactive)	–	–	–	–
Cc1ccccc1NC(=O)/C(=N\NC(N)=S)C(C#N)c1ccccc1 (centres undefined)	> 100 µM (inactive)	> 100 µM (inactive)	> 100 µM (inactive)	> 100 µM (inactive)	> 100 µM (inactive)	> 100 µM (inactive)	> 100 µM (inactive)	> 100 µM (inactive)	> 100 µM	> 100 µM (inactive)	> 100 µM (inactive)	> 100 µM (inactive)	> 100 µM (inactive)	> 100 µM (inactive)	> 100 µM (inactive)	> 100 µM (inactive)	–	–	–	–
Cc1ccc(/C=C2\CNC/C(=C\c3ccc(C)cc3)C2=O)cc1	6.46 µM (inactive)	2.26 µM (inactive)	14.4 µM (inactive)	1.9 µM (inactive)	1.87 µM (inactive)	2.22 µM (inactive)	1.57 µM (inactive)	1.89 µM (inactive)	1.49 µM	2.96 µM (inactive)	2.53 µM (inactive)	1.35 µM (inactive)	1.48 µM (inactive)	2.19 µM (inactive)	1.12 µM (inactive)	2.52 µM (inactive)	1.89 µM (inactive)	2.91 µM (inactive)	3.03 µM (inactive)	2.24 µM (inactive)
